Assay results as given in patent US10611750B2, “Tetrahydroquinoline compositions as bet bromodomain inhibitors” (FORMA Therapeutics, Inc., priority 2013, dated 2020).

Key:
[1] = target: T1, BRD4 Bromodomain 1 (BRD4 BD1) (Homo sapiens, UniProt O60885); experiment: AlphaScreen binding assay, BRD4 BD1; conditions: His-tagged BRD4 BD1 50 nM, biotinylated H4 (1-21) K5/8/12/16 tetra-acetylated peptide 50 nM, compounds listed under IC50 range headings
T1 construct: 44-168 and BRD4 BD2
Method in brief: (§1)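 Compound dilution series were mixed with His-tagged BRD4 bromodomain and biotinylated tetra-acetylated H4 (1-21) peptide at pH 7.3 (BD1 and peptide at 50 nM, BD2 and peptide at 100 nM). Donor and acceptor beads were then added, and plates were equilibrated at least 1 h before reading. IC50 values were fitted with a four-parameter logistic model.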

[2] = test system: acute myelocytic leukemia (AML) cell line MV4-11; experiment: Oncology cell growth assay (3-day proliferation, CellTiter-Glo); assay type: cell-based; conditions: Homo sapiens, MV4-11, 72 h, MV4-11 cells, 3000 cells/well, compounds listed under IC50 range headings, read-out: MV411 IC50 (gIC50, inhibition of proliferation)
Method in brief: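 MV4-11 AML cells (RPMI 1640, 10% FBS) plated at 3000 cells/well and exposed 72 h to compound at final 10 to 0.0045 μM (3-fold series). Viability read by CellTiter-Glo luminescence; gIC50 from four-parameter logistic fit between DMSO control and no-cell background.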

[3] = target: T2, BRD4 Bromodomain 2 (BRD4 BD2) (Homo sapiens, UniProt O60885); experiment: AlphaScreen binding assay, BRD4 BD2; conditions: His-tagged BRD4 BD2 100 nM, biotinylated H4 (1-21) K5/8/12/16 tetra-acetylated peptide 100 nM, compounds listed under IC50 range headings
T2 construct: 333-460 were cloned, expressed, and purified to homogeneity
Method in brief: as §1

Row | Compound | IC50 [1] | IC50 [2] | IC50 [3]
1 | COC(=O)N1c2ccc(-c3cnn(CC(C)(C)O)c3)c(OCC3CCOCC3)c2CC[C@@H]1C [I-449] | 100 to 1000 nM | < 500 nM | 50 to 500 nM
2 | COC(=O)N1c2ccc(-c3cnn(C4CCNCC4)c3)c(OCC(C)C)c2CC[C@@H]1C [I-458] | 100 to 1000 nM | < 500 nM | < 50 nM
3 | COC(=O)N1c2ccc(-c3cnn(CCS(C)(=O)=O)c3)c(OCC3CCCC3)c2CC[C@@H]1C [I-459] | 100 to 1000 nM | > 1000 nM | 50 to 500 nM
4 | COC(=O)N1c2ccc(-c3cnn(CCO)c3)c(OCC3CCCC3)c2CC[C@@H]1C [I-461] | 100 to 1000 nM | 500 to 1000 nM | < 50 nM
5 | COC(=O)N1c2ccc(-c3cnn(C4CCNCC4)c3)c(OCC3CCCC3)c2CC[C@@H]1C [I-462] | 100 to 1000 nM | 500 to 1000 nM | < 50 nM
6 | COC(=O)N1c2ccc(-c3cnn(C4CCNCC4)c3)c(OCC(=O)N3CCCC3)c2CC[C@@H]1C [I-466] | 100 to 1000 nM | > 1000 nM | 50 to 500 nM
7 | CC(=O)N1c2ccc(-c3cnn(C4CC4)c3)c(OCc3ccncc3)c2CC[C@@H]1C [I-479] | 1000 to 10000 nM | > 1000 nM | < 50 nM
8 | CCCOc1c(-c2ccc(OCCN(C)C)cc2)ccc2c1CC[C@H](C)N2C(C)=O [I-486] | 1000 to 10000 nM | < 500 nM | 50 to 500 nM
9 | CC(=O)N1c2ccc(-c3ccc(OCCN(C)C)cc3)c(OCC(=O)N(C)C)c2CC[C@@H]1C [I-487] | 1000 to 10000 nM | > 1000 nM | ≥ 500 nM
10 | CC(=O)N1c2ccc(-c3cccc(NS(C)(=O)=O)c3)c(OCC(=O)N(C)C)c2CC[C@@H]1C [I-491] | 1000 to 10000 nM | > 1000 nM | 50 to 500 nM
11 | CC(=O)N1c2ccc(-c3ccc4c(c3)CCN4S(C)(=O)=O)c(OCC(=O)N(C)C)c2CC[C@@H]1C [I-501] | 1000 to 10000 nM | > 1000 nM | 50 to 500 nM
12 | CCCOc1c(-c2cc3ccccc3o2)ccc2c1CC[C@H](C)N2C(C)=O [I-504] | 1000 to 10000 nM | > 1000 nM | ≥ 500 nM
13 | CC(=O)N1c2ccc(-c3cnn(C4CCNCC4)c3)c(Oc3ncc(F)cn3)c2CC[C@@H]1C [I-511] | 100 to 1000 nM | < 500 nM | < 50 nM
14 | CC(=O)N1c2ccc(-c3cnn(C4CCNCC4)c3)c(Oc3ccc(C(F)(F)F)cn3)c2CC[C@@H]1C [I-512] | 100 to 1000 nM | < 500 nM | 50 to 500 nM
15 | CC(=O)N1c2ccc(-c3cnn(C4CCNCC4)c3)c(Oc3ncccn3)c2CC[C@@H]1C [I-513] | 1000 to 10000 nM | < 500 nM | 50 to 500 nM
16 | CC(=O)N1c2ccc(-c3cnn(C4CCNCC4)c3)c(Oc3nccc(C(F)(F)F)n3)c2CC[C@@H]1C [I-514] | 1000 to 10000 nM | < 500 nM | 50 to 500 nM
17 | CC(=O)N1c2ccc(-c3cnn(C4CCNCC4)c3)c(Oc3ccnc(C(F)(F)F)n3)c2CC[C@@H]1C [I-515] | 1000 to 10000 nM | 500 to 1000 nM | 50 to 500 nM
18 | CC(=O)N1c2ccc(-c3cnn(C4CCNCC4)c3)c(Oc3cc(N4CCOCC4)ncn3)c2CC[C@@H]1C [I-516] | 1000 to 10000 nM | 500 to 1000 nM | 50 to 500 nM
19 | CC(=O)N1c2ccc(-c3cnn(C4CCNCC4)c3)c(Oc3cc(C4CC4)ncn3)c2CC[C@@H]1C [I-517] | 1000 to 10000 nM | < 500 nM | 50 to 500 nM
20 | CC(=O)N1c2ccc(-c3cnn(C4CCNCC4)c3)c(Oc3ncc(C4CC4)cn3)c2CC[C@@H]1C [I-518] | 100 to 1000 nM | < 500 nM | 50 to 500 nM
21 | CC(=O)N1c2ccc(-c3cnn(C4CCNCC4)c3)c(Oc3ncc(C(F)(F)F)cn3)c2CC[C@@H]1C [I-519] | 100 to 1000 nM | < 500 nM | 50 to 500 nM
22 | CC(=O)N1c2ccc(-c3cnn(C4CCNCC4)c3)c(Oc3ncccc3C(N)=O)c2CC[C@@H]1C [I-520] | 1000 to 10000 nM | > 1000 nM | 50 to 500 nM
23 | CC(=O)N1c2ccc(-c3cnn(C4CCNCC4)c3)c(Oc3ncc(C(F)(F)F)cc3F)c2CC[C@@H]1C [I-521] | 100 to 1000 nM | < 500 nM | < 50 nM
24 | COC(=O)c1ccc(Oc2c(-c3cnn(C4CCNCC4)c3)ccc3c2CC[C@H](C)N3C(C)=O)nc1 [I-522] | 1000 to 10000 nM | 500 to 1000 nM | 50 to 500 nM
25 | CC(=O)N1c2ccc(-c3cnn(C4CCNCC4)c3)c(Oc3ccc(C(N)=O)cn3)c2CC[C@@H]1C [I-523] | 1000 to 10000 nM | > 1000 nM | 50 to 500 nM
26 | COC(=O)N1c2ccc(-c3cnn(C4CCNCC4)c3)c(Oc3ccc(C(F)(F)F)cn3)c2CC[C@@H]1C [I-524] | 1000 to 10000 nM | < 500 nM | 50 to 500 nM

Row | Compound | IC50 [1] | IC50 [2] | IC50 [3]
27 | COC(=O)N1c2ccc(-c3cnn(C4CCNCC4)c3)c(Oc3ncccn3)c2CC[C@@H]1C [I-525] | 1000 to 10000 nM | < 500 nM | 50 to 500 nM
28 | COC(=O)N1c2ccc(-c3cnn(C4CCNCC4)c3)c(Oc3cnccn3)c2CC[C@@H]1C [I-526] | 1000 to 10000 nM | < 500 nM | 50 to 500 nM
29 | COC(=O)N1c2ccc(-c3cnn(C4CCNCC4)c3)c(Oc3ncccc3C(F)(F)F)c2CC[C@@H]1C [I-527] | 1000 to 10000 nM | < 500 nM | 50 to 500 nM
30 | COC(=O)N1c2ccc(-c3cnn(C4CCNCC4)c3)c(Oc3nccc(C(F)(F)F)n3)c2CC[C@@H]1C [I-528] | 1000 to 10000 nM | < 500 nM | 50 to 500 nM
31 | COC(=O)N1c2ccc(-c3cnn(C4CCNCC4)c3)c(Oc3ccnc(C(F)(F)F)n3)c2CC[C@@H]1C [I-529] | 1000 to 10000 nM | < 500 nM | 50 to 500 nM
32 | COC(=O)N1c2ccc(-c3cnn(C4CCNCC4)c3)c(Oc3cc(N4CCOCC4)ncn3)c2CC[C@@H]1C [I-530] | ≥ 10000 nM | > 1000 nM | ≥ 500 nM
33 | COC(=O)N1c2ccc(-c3cnn(C4CCNCC4)c3)c(Oc3cc(C4CC4)ncn3)c2CC[C@@H]1C [I-531] | 1000 to 10000 nM | < 500 nM | 50 to 500 nM
34 | COC(=O)N1c2ccc(-c3cnn(C4CCNCC4)c3)c(Oc3ncc(C4CC4)cn3)c2CC[C@@H]1C [I-532] | 1000 to 10000 nM | 500 to 1000 nM | 50 to 500 nM
35 | COC(=O)N1c2ccc(-c3cnn(C4CCNCC4)c3)c(Oc3ncc(F)cn3)c2CC[C@@H]1C [I-533] | 1000 to 10000 nM | < 500 nM | 50 to 500 nM
36 | COC(=O)N1c2ccc(-c3cnn(C4CCNCC4)c3)c(Oc3ncc(C(F)(F)F)cn3)c2CC[C@@H]1C [I-534] | 1000 to 10000 nM | 500 to 1000 nM | 50 to 500 nM
37 | COC(=O)N1c2ccc(-c3cnn(C4CCNCC4)c3)c(Oc3ncc(C)cn3)c2CC[C@@H]1C [I-535] | 1000 to 10000 nM | < 500 nM | 50 to 500 nM
38 | COC(=O)N1c2ccc(-c3cnn(C4CCNCC4)c3)c(Oc3ncc(C(F)(F)F)cc3F)c2CC[C@@H]1C [I-536] | 1000 to 10000 nM | 500 to 1000 nM | 50 to 500 nM
39 | COC(=O)c1ccc(Oc2c(-c3cnn(C4CCNCC4)c3)ccc3c2CC[C@H](C)N3C(=O)OC)nc1 [I-537] | 1000 to 10000 nM | 500 to 1000 nM | 50 to 500 nM
40 | COC(=O)N1c2ccc(-c3cnn(C4CCNCC4)c3)c(Oc3ccc(C(N)=O)cn3)c2CC[C@@H]1C [I-538] | 1000 to 10000 nM | > 1000 nM | 50 to 500 nM
41 | C[C@H]1CCc2c(ccc(-c3cnn(C4CCNCC4)c3)c2Oc2ncccc2C(F)(F)F)N1C(=O)C1CC1 [I-539] | 1000 to 10000 nM | < 500 nM | 50 to 500 nM
42 | C[C@H]1CCc2c(ccc(-c3cnn(C4CCNCC4)c3)c2Oc2ncccc2C#N)N1C(=O)C1CC1 [I-540] | 100 to 1000 nM | < 500 nM | 50 to 500 nM
43 | C[C@H]1CCc2c(ccc(-c3cnn(C4CCNCC4)c3)c2Oc2ccc(C(F)(F)F)cn2)N1C(=O)C1CC1 [I-541] | 1000 to 10000 nM | < 500 nM | 50 to 500 nM
44 | CC(=O)N1c2ccc(-c3cnn(CCO)c3)c(Oc3ncc(C(F)(F)F)cn3)c2CC[C@@H]1C [I-542] | 100 to 1000 nM | < 500 nM | 50 to 500 nM
45 | CC(=O)N1c2ccc(-c3cnn(CCO)c3)c(Oc3ncc(F)cn3)c2CC[C@@H]1C [I-543] | 100 to 1000 nM | < 500 nM | 50 to 500 nM
46 | CC(=O)N1c2ccc(-c3cnn(CCO)c3)c(Oc3ncc(C(C)C)cn3)c2CC[C@@H]1C [I-545] | 100 to 1000 nM | < 500 nM | < 50 nM
47 | COc1cnc(Oc2c(-c3cnn(CCO)c3)ccc3c2CC[C@H](C)N3C(C)=O)nc1 [I-546] | 100 to 1000 nM | 500 to 1000 nM | < 50 nM
48 | CC(=O)N1c2ccc(-c3cnn(CCO)c3)c(Oc3ncc(C4CC4)cn3)c2CC[C@@H]1C [I-547] | 100 to 1000 nM | < 500 nM | < 50 nM
49 | CC(=O)N1c2ccc(-c3ccc4c(c3)CCN4S(C)(=O)=O)c(Oc3ncc(F)cn3)c2CC[C@@H]1C [I-548] | 1000 to 10000 nM | < 500 nM | 50 to 500 nM
50 | CC(=O)N1c2ccc(-c3ccc(S(C)(=O)=O)cc3)c(Oc3ncc(F)cn3)c2CC[C@@H]1C [I-549] | 1000 to 10000 nM | 500 to 1000 nM | 50 to 500 nM
51 | CC(=O)N1c2ccc(-c3cnn(CCS(C)(=O)=O)c3)c(Oc3ncc(F)cn3)c2CC[C@@H]1C [I-550] | 100 to 1000 nM | < 500 nM | < 50 nM
